Data as given in PubChem BioAssay (NCI).
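Test compounds were applied to cells in 96-well plates for 48 hours at 5 doses. TGI: concentration producing complete growth inhibition.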

These compounds were tested on SN12C renal (assay: NCI tumour cell line growth inhibition, 48 h).

| Compound | TGI [µM] |
| --- | --- |
| CC1(C)OC(C(C)(C)O)C(C(C)(C)O)O1 (centres undefined) | > 100 |
| COC(=O)[C@@H]1CCc2nc3ccccc3c(=O)n21 | > 100 |
| N#CC1=C(N)OC2=C(CCCc3ccc([N+](=O)[O-])cc32)C1c1ccccc1 (centres undefined) | 20.4 |
| O=C1CC(=O)c2c(N3CCCC3)sc(N3CCCC3)c21 | > 100 |
| CN(C)c1nc2nonc2nc1Nc1ccccc1 | > 100 |

Each compound was assayed on NCI-H23 lung (assay: NCI tumour cell line growth inhibition, 48 h).

| Compound | TGI [µM] |
| --- | --- |
| CC1(C)OC(C(C)(C)O)C(C(C)(C)O)O1 (centres undefined) | > 100 |
| COC(=O)[C@@H]1CCc2nc3ccccc3c(=O)n21 | > 100 |
| N#CC1=C(N)OC2=C(CCCc3ccc([N+](=O)[O-])cc32)C1c1ccccc1 (centres undefined) | 36 |
| O=C1CC(=O)c2c(N3CCCC3)sc(N3CCCC3)c21 | > 100 |
| CN(C)c1nc2nonc2nc1Nc1ccccc1 | > 100 |

The compounds below were run on HCT-15 colon (assay: NCI tumour cell line growth inhibition, 48 h).

| Compound | TGI [µM] |
| --- | --- |
| CC1(C)OC(C(C)(C)O)C(C(C)(C)O)O1 (centres undefined) | > 100 |
| COC(=O)[C@@H]1CCc2nc3ccccc3c(=O)n21 | > 100 |
| N#CC1=C(N)OC2=C(CCCc3ccc([N+](=O)[O-])cc32)C1c1ccccc1 (centres undefined) | 16.7 |
| O=C1CC(=O)c2c(N3CCCC3)sc(N3CCCC3)c21 | > 100 |
| CN(C)c1nc2nonc2nc1Nc1ccccc1 | > 100 |

Each compound was assayed on SF-539 CNS (assay: NCI tumour cell line growth inhibition, 48 h).

| Compound | TGI [µM] |
| --- | --- |
| CC1(C)OC(C(C)(C)O)C(C(C)(C)O)O1 (centres undefined) | > 100 |
| N#CC1=C(N)OC2=C(CCCc3ccc([N+](=O)[O-])cc32)C1c1ccccc1 (centres undefined) | 12.7 |
| O=C1CC(=O)c2c(N3CCCC3)sc(N3CCCC3)c21 | > 100 |

The compounds below were run on HT29 colon (assay: NCI tumour cell line growth inhibition, 48 h).

| Compound | TGI [µM] |
| --- | --- |
| CC1(C)OC(C(C)(C)O)C(C(C)(C)O)O1 (centres undefined) | > 100 |
| COC(=O)[C@@H]1CCc2nc3ccccc3c(=O)n21 | > 100 |
| N#CC1=C(N)OC2=C(CCCc3ccc([N+](=O)[O-])cc32)C1c1ccccc1 (centres undefined) | 12.2 |
| O=C1CC(=O)c2c(N3CCCC3)sc(N3CCCC3)c21 | > 100 |
| CN(C)c1nc2nonc2nc1Nc1ccccc1 | > 100 |

What follows are compounds tested on MOLT-4 leukemia (assay: NCI tumour cell line growth inhibition, 48 h).

| Compound | TGI [µM] |
| --- | --- |
| CC1(C)OC(C(C)(C)O)C(C(C)(C)O)O1 (centres undefined) | > 100 |
| COC(=O)[C@@H]1CCc2nc3ccccc3c(=O)n21 | > 100 |
| N#CC1=C(N)OC2=C(CCCc3ccc([N+](=O)[O-])cc32)C1c1ccccc1 (centres undefined) | 18.7 |
| O=C1CC(=O)c2c(N3CCCC3)sc(N3CCCC3)c21 | > 100 |
| CN(C)c1nc2nonc2nc1Nc1ccccc1 | > 100 |

What follows are compounds tested on MCF7 breast (assay: NCI tumour cell line growth inhibition, 48 h).

| Compound | TGI [µM] |
| --- | --- |
| CC1(C)OC(C(C)(C)O)C(C(C)(C)O)O1 (centres undefined) | > 100 |
| N#CC1=C(N)OC2=C(CCCc3ccc([N+](=O)[O-])cc32)C1c1ccccc1 (centres undefined) | 15.2 |
| O=C1CC(=O)c2c(N3CCCC3)sc(N3CCCC3)c21 | > 100 |
| CN(C)c1nc2nonc2nc1Nc1ccccc1 | > 100 |

What follows are compounds tested on UACC-257 melanoma (assay: NCI tumour cell line growth inhibition, 48 h).

| Compound | TGI [µM] |
| --- | --- |
| CC1(C)OC(C(C)(C)O)C(C(C)(C)O)O1 (centres undefined) | > 100 |
| COC(=O)[C@@H]1CCc2nc3ccccc3c(=O)n21 | > 100 |
| N#CC1=C(N)OC2=C(CCCc3ccc([N+](=O)[O-])cc32)C1c1ccccc1 (centres undefined) | 24.6 |
| O=C1CC(=O)c2c(N3CCCC3)sc(N3CCCC3)c21 | > 100 |
| CN(C)c1nc2nonc2nc1Nc1ccccc1 | > 100 |

The compounds below were run on K-562 leukemia (assay: NCI tumour cell line growth inhibition, 48 h).

| Compound | TGI [µM] |
| --- | --- |
| CC1(C)OC(C(C)(C)O)C(C(C)(C)O)O1 (centres undefined) | > 100 |
| COC(=O)[C@@H]1CCc2nc3ccccc3c(=O)n21 | > 100 |
| N#CC1=C(N)OC2=C(CCCc3ccc([N+](=O)[O-])cc32)C1c1ccccc1 (centres undefined) | 13.8 |
| O=C1CC(=O)c2c(N3CCCC3)sc(N3CCCC3)c21 | > 100 |
| CN(C)c1nc2nonc2nc1Nc1ccccc1 | > 100 |

The compounds below were run on OVCAR-8 ovarian (assay: NCI tumour cell line growth inhibition, 48 h).

| Compound | TGI [µM] |
| --- | --- |
| CC1(C)OC(C(C)(C)O)C(C(C)(C)O)O1 (centres undefined) | > 100 |
| COC(=O)[C@@H]1CCc2nc3ccccc3c(=O)n21 | > 100 |
| N#CC1=C(N)OC2=C(CCCc3ccc([N+](=O)[O-])cc32)C1c1ccccc1 (centres undefined) | 22.4 |
| O=C1CC(=O)c2c(N3CCCC3)sc(N3CCCC3)c21 | > 100 |
| CN(C)c1nc2nonc2nc1Nc1ccccc1 | > 100 |

The compounds below were run on KM12 colon (assay: NCI tumour cell line growth inhibition, 48 h).

| Compound | TGI [µM] |
| --- | --- |
| CC1(C)OC(C(C)(C)O)C(C(C)(C)O)O1 (centres undefined) | > 100 |
| COC(=O)[C@@H]1CCc2nc3ccccc3c(=O)n21 | > 100 |
| N#CC1=C(N)OC2=C(CCCc3ccc([N+](=O)[O-])cc32)C1c1ccccc1 (centres undefined) | 14.8 |
| O=C1CC(=O)c2c(N3CCCC3)sc(N3CCCC3)c21 | > 100 |

Each compound was assayed on NCI-H460 lung (assay: NCI tumour cell line growth inhibition, 48 h).

| Compound | TGI [µM] |
| --- | --- |
| CC1(C)OC(C(C)(C)O)C(C(C)(C)O)O1 (centres undefined) | > 100 |
| COC(=O)[C@@H]1CCc2nc3ccccc3c(=O)n21 | > 100 |
| N#CC1=C(N)OC2=C(CCCc3ccc([N+](=O)[O-])cc32)C1c1ccccc1 (centres undefined) | 23.1 |
| O=C1CC(=O)c2c(N3CCCC3)sc(N3CCCC3)c21 | > 100 |
| CN(C)c1nc2nonc2nc1Nc1ccccc1 | > 100 |

The compounds below were run on U251 CNS (assay: NCI tumour cell line growth inhibition, 48 h).

| Compound | TGI [µM] |
| --- | --- |
| CC1(C)OC(C(C)(C)O)C(C(C)(C)O)O1 (centres undefined) | > 100 |
| COC(=O)[C@@H]1CCc2nc3ccccc3c(=O)n21 | > 100 |
| N#CC1=C(N)OC2=C(CCCc3ccc([N+](=O)[O-])cc32)C1c1ccccc1 (centres undefined) | 17.5 |
| O=C1CC(=O)c2c(N3CCCC3)sc(N3CCCC3)c21 | > 100 |
| CN(C)c1nc2nonc2nc1Nc1ccccc1 | > 100 |

These compounds were tested on HCC-2998 colon (assay: NCI tumour cell line growth inhibition, 48 h).

| Compound | TGI [µM] |
| --- | --- |
| CC1(C)OC(C(C)(C)O)C(C(C)(C)O)O1 (centres undefined) | > 100 |
| COC(=O)[C@@H]1CCc2nc3ccccc3c(=O)n21 | > 100 |
| N#CC1=C(N)OC2=C(CCCc3ccc([N+](=O)[O-])cc32)C1c1ccccc1 (centres undefined) | 6.41 |
| O=C1CC(=O)c2c(N3CCCC3)sc(N3CCCC3)c21 | > 100 |
| CN(C)c1nc2nonc2nc1Nc1ccccc1 | > 100 |

What follows are compounds tested on OVCAR-5 ovarian (assay: NCI tumour cell line growth inhibition, 48 h).

| Compound | TGI [µM] |
| --- | --- |
| CC1(C)OC(C(C)(C)O)C(C(C)(C)O)O1 (centres undefined) | > 100 |
| COC(=O)[C@@H]1CCc2nc3ccccc3c(=O)n21 | > 100 |
| N#CC1=C(N)OC2=C(CCCc3ccc([N+](=O)[O-])cc32)C1c1ccccc1 (centres undefined) | 43.1 |
